From patent publication US10668043B2, “Potentiated antimicrobial agents” (priority 2014, dated 2020)
In brackets after ≈: the same amount, converted by molar mass.

Assays:
Staphylococcus [1] = experiment: etest on agar containing the booster; assay type: cell-based; set-up: MIC (e-test): unit not given beside the values
Source text: (§1) The corresponding tests are made based on the usual MIC test: the etest® (Biomerieux) strip is deposited onto the surface of a seeded agar medium in which the booster has been incorporated. This test enables solvent effect risks, that is a possible interaction with the solvent used in vitro, to be minimised.
(§2) The control corresponds to the test made without cineol. A control is made in each solvent tested: distilled water, Tween/water and DMSO. • ED control=antibiotic alone in distilled water • DMSO control=antibiotic alone in DMSO • TE control=antibiotic alone in Tween® 80

E. coli = experiment: etest on agar containing the booster; assay type: cell-based; set-up: MIC (e-test): unit not given beside the values
Source text: as §1, §2

MSSA 8238 = details: Balb/c, mouse, in vivo
Description: To Balb/c mice, is injected (Sc.) the antimicrobial product or the antimicrobial+booster mixture.
At different post-injection times, the mice are euthanised, and blood sampled, heparined and centrifuged to extract plasma thereof
Antibacterial effects are measured after 24 h incubation. The successive dilutions enable the antimicrobial effect to be determined and compared with the MIC. The efficient concentration/MIC ratio is thus determined.

Pasteurella = experiment: etest on agar containing the booster; assay type: cell-based
Source text: The corresponding tests are made based on the usual MIC test: the etest® (Biomerieux) strip is deposited onto the surface of a seeded agar medium in which the booster has been incorporated.
as §2
Other e-tests are also made on Pasteurella.

Staphylococcus [2] = experiment: Double dilution test; assay type: cell-based; details: strain 8148
Source text: The double dilution test is a MIC measurement test made on successive dilutions of the 2 products of the composition. […] The summary table expresses for each strain and for each dilution of the booster the measured antibiotic MIC.
The code enabling the results to be interpreted is the following one: no sign “^+” if the MIC is equivalent with and without booster, a sign “^+” if the value is lower with booster.

With CC1(C)S[C@@H]2[C@H](NC(=O)[C@H](N)c3ccc(O)cc3)C(=O)N2[C@H]1C(=O)O [Amox, amoxicillin] the “MIC (e-test)” value (Staphylococcus [1]; strain 8143, Cineol 4 mg/L, DMSO) was 1.5^+, the “MIC (e-test)” value (Staphylococcus [1]; strain 8143, Cineol 16 mg/L, DMSO) was 1.5^+ and the “MIC (e-test)” value (Staphylococcus [1]; strain 8143, ED control, no cineol) was 2^+. The “MIC (e-test)” value (Staphylococcus [1]; strain 8146, Cineol 4 mg/L, DMSO) was 0.38^+, the “MIC (e-test)” value (Staphylococcus [1]; strain 8146, Cineol 16 mg/L, DMSO) was 0.19^+ and the “MIC (e-test)” value (Staphylococcus [1]; strain 8146, ED control, no cineol) was 0.5^+. The “MIC (e-test)” value (Staphylococcus [1]; strain 8149, Cineol 4 mg/L, DMSO) was 0.5^+, the “MIC (e-test)” value (Staphylococcus [1]; strain 8149, Cineol 16 mg/L, DMSO) was 0.38^+ and the “MIC (e-test)” value (Staphylococcus [1]; strain 8149, ED control, no cineol) was 1^+. The “MIC (e-test)” value (Staphylococcus [1]; strain 8240, Cineol 4 mg/L, DMSO) was 12^+, the “MIC (e-test)” value (Staphylococcus [1]; strain 8240, Cineol 16 mg/L, DMSO) was 16^+ and the “MIC (e-test)” value (Staphylococcus [1]; strain 8240, ED control, no cineol) was 24^+. The “MIC (e-test)” value (Staphylococcus [1]; strain 8241, Cineol 4 mg/L, DMSO) was 8^+, the “MIC (e-test)” value (Staphylococcus [1]; strain 8241, Cineol 16 mg/L, DMSO) was 12^+ and the “MIC (e-test)” value (Staphylococcus [1]; strain 8241, ED control, no cineol) was 32^+. The “MIC (e-test)” value (Staphylococcus [1]; strain 10168, Cineol 4 mg/L, DMSO) was 1^+, the “MIC (e-test)” value (Staphylococcus [1]; strain 10168, Cineol 16 mg/L, DMSO) was 1^+ and the “MIC (e-test)” value (Staphylococcus [1]; strain 10168, ED control, no cineol) was 2^+. For the same molecule, the “MIC (e-test)” value (E. coli; strain 8141, Cineol 4 mg/L, DMSO) was 6^+, the “MIC (e-test)” value (E. coli; strain 8141, Cineol 16 mg/L, DMSO) was 0.1^+ and the “MIC (e-test)” value (E. coli; strain 8141, ED control, no cineol) was 8^+. The “MIC (e-test)” value (E. coli; strain 8150, Cineol 4 mg/L, DMSO) was 6^+, the “MIC (e-test)” value (E. coli; strain 8150, Cineol 16 mg/L, DMSO) was 0.1^+ and the “MIC (e-test)” value (E. coli; strain 8150, ED control, no cineol) was 8^+. The “MIC (e-test)” value (E. coli; strain 8156, Cineol 4 mg/L, DMSO) was 8^+, the “MIC (e-test)” value (E. coli; strain 8156, Cineol 16 mg/L, DMSO) was 8^+ and the “MIC (e-test)” value (E. coli; strain 8156, ED control, no cineol) was 12^+. For the same molecule, the “MIC (e-test)” value (E. coli; strain ATCC25922, Cineol 4 mg/L, DMSO) was 12^+, the “MIC (e-test)” value (E. coli; strain ATCC25922, Cineol 16 mg/L, DMSO) was 12^+ and the “MIC (e-test)” value (E. coli; strain ATCC25922, ED control, no cineol) was 16^+. The “Time spent beyond the MIC” value (MSSA 8238) was under 5 h, the MIC (e-test) (Pasteurella; strain 14012, 5 mg cineol DMSO) was 0.094 µg/mL (≈ 0.257 µM) and the MIC (e-test) (Pasteurella; strain 14012, 5 mg cineol TE) was 0.094 µg/mL (≈ 0.257 µM). The MIC (e-test) (Pasteurella; strain 14012, 5 mg cineol water) was 0.094 µg/mL (≈ 0.257 µM), the MIC (e-test) (Pasteurella; strain 14012, 10 mg cineol TE) was 0.094 µg/mL (≈ 0.257 µM) and the MIC (e-test) (Pasteurella; strain 14012, 10 mg cineol water) was 0.094 µg/mL (≈ 0.257 µM). For the same molecule, the MIC (e-test) (Pasteurella; strain 14012, DMSO control) was 0.094 µg/mL (≈ 0.257 µM), the MIC (e-test) (Pasteurella; strain 14012, ED control) was 0.032 µg/mL (≈ 0.0876 µM) and the MIC (e-test) (Pasteurella; strain 14012, TE control) was 0.19 µg/mL (≈ 0.52 µM). For the same molecule, the MIC (e-test) (Pasteurella; strain 14013, 5 mg cineol DMSO) was 0.25 µg/mL (≈ 0.684 µM), the MIC (e-test) (Pasteurella; strain 14013, 5 mg cineol TE) was 0.25 µg/mL (≈ 0.684 µM) and the MIC (e-test) (Pasteurella; strain 14013, 5 mg cineol water) was 0.25 µg/mL (≈ 0.684 µM). For the same molecule, the MIC (e-test) (Pasteurella; strain 14013, 10 mg cineol DMSO) was 0.25 µg/mL (≈ 0.684 µM), the MIC (e-test) (Pasteurella; strain 14013, 10 mg cineol water) was 0.19 µg/mL (≈ 0.52 µM) and the MIC (e-test) (Pasteurella; strain 14013, DMSO control) was 0.19 µg/mL (≈ 0.52 µM). For the same molecule, the MIC (e-test) (Pasteurella; strain 14013, ED control) was 0.19 µg/mL (≈ 0.52 µM), the MIC (e-test) (Pasteurella; strain 14013, TE control) was 0.25 µg/mL (≈ 0.684 µM) and the MIC (e-test) (Pasteurella; strain 14014, 5 mg cineol DMSO) was 0.094 µg/mL (≈ 0.257 µM). The MIC (e-test) (Pasteurella; strain 14014, 5 mg cineol TE) was 0.094 µg/mL (≈ 0.257 µM), the MIC (e-test) (Pasteurella; strain 14014, 5 mg cineol water) was 0.19 µg/mL (≈ 0.52 µM) and the MIC (e-test) (Pasteurella; strain 14014, 10 mg cineol TE) was 0.094 µg/mL (≈ 0.257 µM). The MIC (e-test) (Pasteurella; strain 14014, ED Control) was 0.094 µg/mL (≈ 0.257 µM), the MIC (e-test) (Pasteurella; strain 14014, TE control) was 0.094 µg/mL (≈ 0.257 µM) and the amoxicillin MIC (Staphylococcus [2]; Amox, cineol 0) was 8 µg/mL. For the same molecule, the “amoxicillin MIC” value (Staphylococcus [2]; cineol 10 mg/L) was 0.5^+, the amoxicillin MIC (Staphylococcus [2]; cineol 20 mg/L) was 8 µg/mL and the amoxicillin MIC (Staphylococcus [2]; cineol 37.5 mg/L) was 8 µg/mL. The amoxicillin MIC (Staphylococcus [2]; cineol 75 mg/L) was 8 µg/mL, the amoxicillin MIC (Staphylococcus [2]; cineol 150 mg/L) was 8 µg/mL and the amoxicillin MIC (Staphylococcus [2]; cineol 300 mg/L) was 8 µg/mL. For the same molecule, the amoxicillin MIC (Staphylococcus [2]; cineol 600 mg/L) was 8 µg/mL, the amoxicillin MIC (Staphylococcus [2]; cineol 2,500 mg/L) was 8 µg/mL and the amoxicillin MIC (Staphylococcus [2]; cineol 5,000 mg/L) was 8 µg/mL. For the same molecule, the amoxicillin MIC (Staphylococcus [2]; cineol 10,000 mg/L) was 4 µg/mL, the “amoxicillin MIC” value (Staphylococcus [2]; cineol 25,000 mg/L) was 16^ and the “amoxicillin MIC” value (Staphylococcus [2]; cineol 50,000 mg/L) was 0.25^+. It also gave an amoxicillin MIC (Staphylococcus [2]; cineol […]) of 8 µg/mL.
